Source: ChEMBL document CHEMBL1201862, “PubChem BioAssay data set” (2004)
Activity calls are given as the source filed them.

Assays:
Nonstructural protein 1 = Nonstructural protein 1 (Influenza A virus, UniProt Q194T2); type: functional, Influenza A virus (A/California/07/2009(H1N1))
[1] = molecular target: T1, DNA repair and recombination protein RAD54-like (Homo sapiens, UniProt Q92698); assay: inhibitors of human RAD54 branch migration, confirmation, biochemical, fluorescence, cherry-picked samples, dose series (AID 651657); type: functional
T1 sequence (Q92698 whole entry): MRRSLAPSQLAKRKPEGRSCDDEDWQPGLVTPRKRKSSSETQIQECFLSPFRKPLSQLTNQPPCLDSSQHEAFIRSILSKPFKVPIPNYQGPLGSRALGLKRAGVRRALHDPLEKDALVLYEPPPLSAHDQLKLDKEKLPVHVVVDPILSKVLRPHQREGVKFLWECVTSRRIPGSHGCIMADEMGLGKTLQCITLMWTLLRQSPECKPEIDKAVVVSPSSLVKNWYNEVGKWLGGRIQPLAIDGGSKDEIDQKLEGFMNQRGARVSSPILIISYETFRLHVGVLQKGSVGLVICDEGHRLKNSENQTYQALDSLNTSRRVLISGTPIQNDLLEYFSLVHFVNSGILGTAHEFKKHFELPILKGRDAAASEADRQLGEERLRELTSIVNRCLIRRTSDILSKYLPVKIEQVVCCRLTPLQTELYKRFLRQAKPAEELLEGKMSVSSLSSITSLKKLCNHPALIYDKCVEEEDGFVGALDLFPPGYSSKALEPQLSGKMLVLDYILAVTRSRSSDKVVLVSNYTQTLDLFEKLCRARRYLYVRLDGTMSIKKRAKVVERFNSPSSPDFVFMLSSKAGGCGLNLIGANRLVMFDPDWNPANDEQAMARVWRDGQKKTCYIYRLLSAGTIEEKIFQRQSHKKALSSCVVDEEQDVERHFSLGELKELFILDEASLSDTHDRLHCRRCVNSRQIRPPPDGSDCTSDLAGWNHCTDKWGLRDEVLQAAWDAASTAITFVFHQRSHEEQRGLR

[2] = DNA binding of candidate compounds, dose response, artefact control for RAD54 inhibitor project, biochemical, fluorescence polarization, cherry-pick (AID 651673); type: functional
[3] = cytotoxicity toward NIH3T3 fibroblasts, dose response, counter-screen, cell-based, ATP luminescence, mouse fibroblasts (AID 2010); type: functional;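 note: cells exposed to compound for about 90 hours before reading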
[4] = growth suppression of beta-catenin-knockout colon cells, dose response, cell-based, HCT116, human colon tumor (AID 1045); type: functional;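 note: HCT116 colon tumor cells with beta catenin knocked out; cells exposed to compound for 60 hours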
[5] = Counterscreen for activators of the function of SWI/SNF related, matrix associated, actin dependent regulator of chromatin, subfamily a, member 2 (SMARCA2, BRM): Luminescence-based cell-based high throughput dose response assay to identify non-selective compounds using the VP16 reporter assay.; type: functional
[6] = growth suppression of PTEN-null colon cells, dose response, cell-based, HCT116 PTEN knockout (AID 1047); type: functional;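 note: HCT116 colon tumor cells with PTEN knocked out; cells exposed to compound for 60 hours before readout; potency for loss of cell viability measured by luminescence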
[7] = molecular target: SWI/SNF-related matrix-associated actin-dependent regulator of chromatin subfamily A member 2 (Homo sapiens, UniProt P51531); assay: Luminescence-based cell-based high throughput dose response assay to identify activators of the function of SWI/SNF related, matrix associated, actin dependent regulator of chromatin, subfamily a, member 2 (SMARCA2, BRM).; type: functional
[8] = inhibitors of intracellular T. cruzi replication, confirmation, NIH3T3 host cells, beta-gal luminescence (AID 2044); type: functional, cell-based;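 note: intracellular parasites grown in NIH/3T3 mouse fibroblasts as host cells; luminescent beta-galactosidase reporter signal from transgenic T. cruzi replicating inside host cells; inhibitors lower the luminescence signal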
[9] = molecular target: DNA (cytosine-5)-methyltransferase 1 (Homo sapiens, UniProt P26358); assay: DNMT1 methyltransferase inhibitors, confirmation, biochemical, fluorescent molecular beacon (AID 602386); type: functional
[10] = molecular target: T2, Sentrin-specific protease 1 (Homo sapiens, UniProt Q9P0U3); assay: potency of human SENP1 inhibitors, dose response, biochemical, kinetic FRET (AID 651697); type: functional; conditions: read-out: IC50_Mean
[11] = molecular target: T2, Sentrin-specific protease 1; assay: Dose response confirmation of small molecule inhibitors of the catalytic domain of the SUMO protease, SENP1 in a FRET assay.; type: functional; conditions: read-out: IC50_Mean

T2 sequence (Q9P0U3 whole entry, the tested form may be a part): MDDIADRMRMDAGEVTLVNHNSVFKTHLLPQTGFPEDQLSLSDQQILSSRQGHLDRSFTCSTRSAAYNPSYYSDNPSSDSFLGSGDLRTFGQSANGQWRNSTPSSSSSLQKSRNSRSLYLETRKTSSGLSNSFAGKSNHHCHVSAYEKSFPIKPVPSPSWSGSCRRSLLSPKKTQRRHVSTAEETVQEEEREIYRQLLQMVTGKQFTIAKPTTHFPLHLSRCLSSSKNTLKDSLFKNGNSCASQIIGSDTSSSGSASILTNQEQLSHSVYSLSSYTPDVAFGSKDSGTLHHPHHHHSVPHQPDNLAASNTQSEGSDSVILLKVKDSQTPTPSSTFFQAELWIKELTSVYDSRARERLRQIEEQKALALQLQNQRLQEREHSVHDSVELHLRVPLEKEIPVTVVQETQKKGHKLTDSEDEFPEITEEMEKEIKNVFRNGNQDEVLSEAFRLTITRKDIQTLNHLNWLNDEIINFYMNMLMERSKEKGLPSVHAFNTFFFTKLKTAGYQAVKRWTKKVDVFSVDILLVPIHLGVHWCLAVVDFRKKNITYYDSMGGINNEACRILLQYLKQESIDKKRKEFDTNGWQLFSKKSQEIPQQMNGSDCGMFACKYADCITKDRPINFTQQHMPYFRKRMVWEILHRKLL
Sequence of SWI/SNF-related matrix-associated actin-dependent regulator of chromatin subfamily A member 2 (P51531 whole entry): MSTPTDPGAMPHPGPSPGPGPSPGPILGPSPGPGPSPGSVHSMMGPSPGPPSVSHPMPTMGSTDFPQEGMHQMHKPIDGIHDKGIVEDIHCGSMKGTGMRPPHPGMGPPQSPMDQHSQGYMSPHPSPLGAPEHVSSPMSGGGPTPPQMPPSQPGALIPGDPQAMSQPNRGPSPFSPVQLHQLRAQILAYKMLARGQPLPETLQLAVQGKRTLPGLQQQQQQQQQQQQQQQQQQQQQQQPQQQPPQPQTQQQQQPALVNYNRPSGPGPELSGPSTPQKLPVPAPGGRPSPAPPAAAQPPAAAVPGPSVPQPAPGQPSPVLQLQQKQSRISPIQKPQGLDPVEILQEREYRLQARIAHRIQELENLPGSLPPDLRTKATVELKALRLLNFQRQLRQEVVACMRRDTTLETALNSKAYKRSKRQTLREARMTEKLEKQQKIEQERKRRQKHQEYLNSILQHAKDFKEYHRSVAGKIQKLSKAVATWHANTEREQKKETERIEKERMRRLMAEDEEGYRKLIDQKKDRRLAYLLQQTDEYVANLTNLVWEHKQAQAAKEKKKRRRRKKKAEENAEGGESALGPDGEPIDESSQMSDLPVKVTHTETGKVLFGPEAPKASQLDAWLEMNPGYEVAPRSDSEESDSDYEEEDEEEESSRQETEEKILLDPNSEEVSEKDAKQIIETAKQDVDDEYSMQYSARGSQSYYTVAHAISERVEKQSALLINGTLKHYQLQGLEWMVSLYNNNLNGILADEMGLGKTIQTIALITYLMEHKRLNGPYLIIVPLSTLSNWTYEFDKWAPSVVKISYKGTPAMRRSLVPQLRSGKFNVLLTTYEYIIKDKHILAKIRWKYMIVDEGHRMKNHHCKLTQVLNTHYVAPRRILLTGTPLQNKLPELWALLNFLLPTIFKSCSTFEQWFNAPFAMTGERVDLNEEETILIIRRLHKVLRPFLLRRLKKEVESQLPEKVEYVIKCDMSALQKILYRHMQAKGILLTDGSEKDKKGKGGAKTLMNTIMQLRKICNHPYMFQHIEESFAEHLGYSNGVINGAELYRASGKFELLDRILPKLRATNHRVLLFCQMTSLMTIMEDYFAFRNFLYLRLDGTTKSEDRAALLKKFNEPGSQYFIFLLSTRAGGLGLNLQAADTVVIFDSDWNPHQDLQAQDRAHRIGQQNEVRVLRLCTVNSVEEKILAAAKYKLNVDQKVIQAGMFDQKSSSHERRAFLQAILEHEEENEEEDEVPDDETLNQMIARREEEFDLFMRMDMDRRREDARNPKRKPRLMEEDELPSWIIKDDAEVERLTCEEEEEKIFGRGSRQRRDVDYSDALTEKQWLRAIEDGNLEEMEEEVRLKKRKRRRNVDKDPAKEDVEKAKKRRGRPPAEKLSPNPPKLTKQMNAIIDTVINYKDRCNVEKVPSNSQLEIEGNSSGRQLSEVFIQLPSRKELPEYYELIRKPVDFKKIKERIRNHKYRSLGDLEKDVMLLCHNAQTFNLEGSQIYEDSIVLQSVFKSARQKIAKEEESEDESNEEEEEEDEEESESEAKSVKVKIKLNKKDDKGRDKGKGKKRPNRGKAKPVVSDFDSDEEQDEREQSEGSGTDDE
Sequence of Nonstructural protein 1 (Q194T2 whole entry): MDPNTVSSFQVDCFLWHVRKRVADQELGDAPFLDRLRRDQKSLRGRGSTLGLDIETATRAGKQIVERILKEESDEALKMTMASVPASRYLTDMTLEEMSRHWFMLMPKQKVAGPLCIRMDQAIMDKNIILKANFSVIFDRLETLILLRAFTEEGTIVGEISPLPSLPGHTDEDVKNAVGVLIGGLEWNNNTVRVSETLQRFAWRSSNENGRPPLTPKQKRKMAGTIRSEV
Sequence of DNA (cytosine-5)-methyltransferase 1 (P26358 whole entry): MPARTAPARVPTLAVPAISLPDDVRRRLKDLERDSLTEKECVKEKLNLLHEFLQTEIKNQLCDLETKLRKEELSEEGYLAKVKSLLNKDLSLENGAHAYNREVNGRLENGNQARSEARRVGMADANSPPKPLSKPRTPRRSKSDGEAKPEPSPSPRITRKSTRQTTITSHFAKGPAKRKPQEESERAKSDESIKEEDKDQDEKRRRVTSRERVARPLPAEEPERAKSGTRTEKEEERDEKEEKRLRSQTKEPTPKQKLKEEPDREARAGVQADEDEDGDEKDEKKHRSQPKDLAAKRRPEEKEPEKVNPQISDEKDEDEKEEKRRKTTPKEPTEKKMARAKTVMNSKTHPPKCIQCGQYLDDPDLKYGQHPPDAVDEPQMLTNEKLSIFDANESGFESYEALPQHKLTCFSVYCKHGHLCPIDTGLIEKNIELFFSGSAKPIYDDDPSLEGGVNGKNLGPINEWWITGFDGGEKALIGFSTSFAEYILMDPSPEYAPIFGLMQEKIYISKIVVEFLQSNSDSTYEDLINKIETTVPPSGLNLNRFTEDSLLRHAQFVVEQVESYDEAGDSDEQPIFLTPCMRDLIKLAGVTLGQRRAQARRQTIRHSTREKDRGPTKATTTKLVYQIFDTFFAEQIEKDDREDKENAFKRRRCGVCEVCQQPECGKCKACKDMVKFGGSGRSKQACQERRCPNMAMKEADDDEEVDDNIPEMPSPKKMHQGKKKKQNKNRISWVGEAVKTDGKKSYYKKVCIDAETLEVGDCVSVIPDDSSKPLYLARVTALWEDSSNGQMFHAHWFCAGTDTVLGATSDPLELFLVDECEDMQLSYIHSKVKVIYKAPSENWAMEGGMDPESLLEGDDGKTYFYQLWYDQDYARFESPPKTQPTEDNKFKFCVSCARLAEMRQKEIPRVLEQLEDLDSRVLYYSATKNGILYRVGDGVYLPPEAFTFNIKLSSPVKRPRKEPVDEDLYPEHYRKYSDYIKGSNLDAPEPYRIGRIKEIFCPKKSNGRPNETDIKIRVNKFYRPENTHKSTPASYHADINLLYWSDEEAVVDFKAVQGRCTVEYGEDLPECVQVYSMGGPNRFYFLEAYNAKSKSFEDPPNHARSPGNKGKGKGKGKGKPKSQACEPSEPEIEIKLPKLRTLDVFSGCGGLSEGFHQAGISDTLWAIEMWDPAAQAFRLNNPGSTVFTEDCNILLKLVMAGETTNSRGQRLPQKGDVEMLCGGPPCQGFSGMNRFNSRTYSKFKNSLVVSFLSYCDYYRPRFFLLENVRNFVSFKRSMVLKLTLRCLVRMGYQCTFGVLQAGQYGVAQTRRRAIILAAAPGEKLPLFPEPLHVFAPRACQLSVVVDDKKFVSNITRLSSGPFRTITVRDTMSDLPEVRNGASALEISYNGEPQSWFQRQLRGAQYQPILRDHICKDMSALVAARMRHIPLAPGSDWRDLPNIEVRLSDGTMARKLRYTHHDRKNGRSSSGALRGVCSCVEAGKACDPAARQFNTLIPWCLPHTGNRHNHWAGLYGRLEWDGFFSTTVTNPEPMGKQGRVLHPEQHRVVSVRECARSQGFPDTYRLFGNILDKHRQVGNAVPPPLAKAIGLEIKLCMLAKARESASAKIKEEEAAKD

| Structure (SMILES) | IC50 (Nonstructural protein 1) | AC50 [1] | AC50 [2] | EC50 [3] | EC50 [4] | EC50 [5] | EC50 [6] | EC50 [7] | EC50 [8] | IC50 [9] | IC50 [10] | IC50 [11] |
| --- | --- | --- | --- | --- | --- | --- | --- | --- | --- | --- | --- | --- |
| CCN(CC)CCNc1nc2cc(OC)c(OC)cc2c2nc(-c3ccccc3)nn12 | > 100 µM (active) | 1.92 µM (active) | 51.8 µM (active) | > 30 µM (not active) | 3.48 µM (active) | > 91.2 µM (inactive) | 4.9 µM (active) | > 91.2 µM (inactive) | 0.678 µM (active) | > 99 µM (inactive) |  |  |
| Cc1cc(C)c(Cn2c(C(=O)O)c(C=O)c3ccccc32)c(C)c1 |  |  |  |  |  |  |  |  |  |  | 16.9 µM (active) | 20.8 µM (inactive) |
